According to BigSolDB 2.1:

CC(=O)C1=C(O)C=C2Oc3c(C(C)=O)c(O)c(C)c(O)c3C2(C)C1=O (stereo in doubt)
solubility (mole fraction) (in acetone, 278.15 K): 0.000422
solubility (mole fraction) (in acetone, 283.15 K): 0.000454
solubility (mole fraction) (in acetone, 288.15 K): 0.000541
solubility (mole fraction) (in acetone, 293.15 K): 0.00061
solubility (mole fraction) (in acetone, 298.15 K): 0.000747
solubility (mole fraction) (in acetone, 303.15 K): 0.000879
solubility (mole fraction) (in acetone, 308.15 K): 0.000978
solubility (mole fraction) (in acetone, 313.15 K): 0.00121
solubility (mole fraction) (in acetone, 318.15 K): 0.00165
solubility (mole fraction) (in acetone, 323.15 K): 0.00197
solubility (mole fraction) (in ethanol, 288.15 K): 3.09e-05
solubility (mole fraction) (in ethanol, 293.15 K): 4.23e-05
solubility (mole fraction) (in ethanol, 298.15 K): 5.3e-05
solubility (mole fraction) (in ethanol, 303.15 K): 6.8e-05
solubility (mole fraction) (in ethanol, 308.15 K): 9.3e-05
solubility (mole fraction) (in ethanol, 313.15 K): 0.000114
solubility (mole fraction) (in ethanol, 318.15 K): 0.000121
solubility (mole fraction) (in ethanol, 323.15 K): 0.000148
solubility (mole fraction) (in ethanol, 328.15 K): 0.000203
solubility (mole fraction) (in ethanol, 333.15 K): 0.000234
solubility (mole fraction) (in ethanol, 338.15 K): 0.000274
solubility (mole fraction) (in ethyl acetate, 288.15 K): 0.00109
solubility (mole fraction) (in ethyl acetate, 293.15 K): 0.00125
solubility (mole fraction) (in ethyl acetate, 298.15 K): 0.00158
solubility (mole fraction) (in ethyl acetate, 303.15 K): 0.00189
solubility (mole fraction) (in ethyl acetate, 308.15 K): 0.00216
solubility (mole fraction) (in ethyl acetate, 313.15 K): 0.00275
solubility (mole fraction) (in ethyl acetate, 318.15 K): 0.00314
solubility (mole fraction) (in ethyl acetate, 323.15 K): 0.0038
solubility (mole fraction) (in ethyl acetate, 328.15 K): 0.00444
solubility (mole fraction) (in ethyl acetate, 333.15 K): 0.00518
solubility (mole fraction) (in ethyl acetate, 338.15 K): 0.00689
solubility (mole fraction) (in n-hexane, 288.15 K): 5.97e-05
solubility (mole fraction) (in n-hexane, 293.15 K): 6.97e-05
solubility (mole fraction) (in n-hexane, 298.15 K): 8.06e-05
solubility (mole fraction) (in n-hexane, 303.15 K): 9.43e-05
solubility (mole fraction) (in n-hexane, 308.15 K): 0.000106
solubility (mole fraction) (in n-hexane, 313.15 K): 0.000128
solubility (mole fraction) (in n-hexane, 318.15 K): 0.000149
solubility (mole fraction) (in n-hexane, 323.15 K): 0.000176
solubility (mole fraction) (in n-hexane, 328.15 K): 0.000224
solubility (mole fraction) (in n-hexane, 333.15 K): 0.000256
solubility (mole fraction) (in n-hexane, 338.15 K): 0.00029
solubility (mole fraction) (in water, 288.15 K): 2.81e-07
solubility (mole fraction) (in water, 293.15 K): 2.99e-07
solubility (mole fraction) (in water, 298.15 K): 3.31e-07
solubility (mole fraction) (in water, 303.15 K): 3.52e-07
solubility (mole fraction) (in water, 308.15 K): 3.75e-07
solubility (mole fraction) (in water, 313.15 K): 4.06e-07
solubility (mole fraction) (in water, 318.15 K): 4.46e-07
solubility (mole fraction) (in water, 323.15 K): 4.77e-07
solubility (mole fraction) (in water, 328.15 K): 5.3e-07
solubility (mole fraction) (in water, 333.15 K): 5.94e-07
solubility (mole fraction) (in water, 338.15 K): 6.61e-07
